Test results taken from patent US8030487B2, “2-amino—5-substituted pyrimidine inhibitors” (TargeGen, Inc., priority 2006, dated 2011).

How the values were obtained:
[1] = test system: retinal edema induced by intravitreal injection of VEGF; assay: Retinal edema (Method #2), induced by intravitreal VEGF; format: in vivo, rat; settings: LE rats, 1% solution topical, vehicle 0.363
Method: Retinal Edema (Method #2) Retinal edema was induced in rats by intravitreal injection of vascular endothelial growth factor (VEGF). LE rats were dosed topically (bilaterally) with either test compound or vehicle (10 μL eyedrops), followed by intravitreal injections of either saline (left eye) or VEGF (right eye). Five hours later, animals were again dosed topically with test compound or vehicle, and then injected i.p. with sodium fluorescein followed 45 later by ocular fluorophotometry to detect fluorescein leakage into the retina and vitreous chamber. EI was calculated according to the following formula: EI=(Fod−Fos)/Fos, where Fod=AUC value for fluorescence in the right eye, and Fos=AUC value for fluorescence in the left (saline injected) eye.

[2] = test system: choroidal neovascularization; assay: Choroidal neovascularization induced by laser injury; format: in vivo, mouse; settings: C57BL/6 mice, 1% solution topical twice per day, 14 days; vehicle 16,192
Method: Choroidal Neovascularization Choroidal neovasculariztion was induced in mice by laser injury. Laser photocoagulation was performed on the choroids of C57BL/6 mice, after which mice were dosed topically with test compound or vehicle for a total of 14 days (10 μL applied per eye twice per day). At the end of the 2 week dosing period, mice were perfused with fluorescein-labeled dextran (2×10^6 average molecular weight), eyes were removed and fixed in formalin, and choroidal flatmounts prepared. Laser injury sites were photographed by fluorescence microscopy and digital images were used to quantify the area of choroidal neovascularization.

[3] = test system: retinal neovascularization; assay: Retinal neovascularization, normoxia-hyperoxia-normoxia mouse pups; format: in vivo; settings: C57BL/6 mouse pups
Method: Retinal Neovascularization Retinal neovascularization was induced in mouse pups by cyclic exposure to normoxia-hyperoxia-normoxia. C57BL/6 mouse pups were exposed to hyperoxia (75% O2 environment) for 5 days starting at from postnatal day 7, then returned to a normoxic environment. Dosing was also initiated at this time (bilateral topical application of test compound or vehicle as a 10 μL eyedrops twice per day). After 5 days of dosing, retinal wholemounts were prepared and stained with a fluorescently labeled lectin that specifically stains murine endothelium. Digital images were captured by fluorescence microscopy and used to quantify total vascular area.

[4] = test system: retinal edema induced by retinal ischemia; assay: Retinal edema (Method #1), induced by retinal ischemia; format: in vivo, rat; settings: LE rats, 1% solution, topical bid × 5, retinal vein thrombosis; vehicle 5.2
Method: Retinal Edema (Method #1) Retinal edema was induced in rats by retinal ischemia. LE rats were injected i.v. with the photosensitizing dye Rose Bengal, followed by laser stimulation of a single retinal vein (in the right eye only) so as to induce thrombosis and thus retinal ischemia. Animals were dosed topically with either test compound or vehicle (10 μL eyedrops twice per day bilaterally) for a total of 5 dosings. Retinal edema was then measured by injecting animals i.p. with sodium fluorescein followed 45 later by ocular fluorophotometry to detect fluorescein leakage into the retina and vitreous chamber. An Edema Index (EI) was calculated according to the following formula: EI=(Fod−Fos)/Fos, where Fod=AUC value for fluorescence in the right eye, and Fos=AUC value for fluorescence in the left (treated but not thrombosed) eye.

Lck = target: T1, Lck (Homo sapiens, UniProt P06239); assay: Lck kinase inhibition (KinaseGlo); format: biochemical
T1 construct: purchased Panvera/Invitrogen
T1 sequence (P06239 whole entry): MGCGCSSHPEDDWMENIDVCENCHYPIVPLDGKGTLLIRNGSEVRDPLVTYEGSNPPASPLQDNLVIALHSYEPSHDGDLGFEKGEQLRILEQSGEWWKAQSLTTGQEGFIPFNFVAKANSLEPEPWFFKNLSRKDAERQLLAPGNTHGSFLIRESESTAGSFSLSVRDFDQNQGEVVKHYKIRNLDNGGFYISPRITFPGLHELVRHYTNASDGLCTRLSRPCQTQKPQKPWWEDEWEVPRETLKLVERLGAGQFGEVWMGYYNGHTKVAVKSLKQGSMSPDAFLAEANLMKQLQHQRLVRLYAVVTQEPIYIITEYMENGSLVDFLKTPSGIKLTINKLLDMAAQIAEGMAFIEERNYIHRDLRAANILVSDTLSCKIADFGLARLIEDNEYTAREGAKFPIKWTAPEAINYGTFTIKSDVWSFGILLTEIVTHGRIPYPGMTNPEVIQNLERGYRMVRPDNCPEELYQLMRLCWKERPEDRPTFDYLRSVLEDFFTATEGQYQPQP
Method: (§1) The ability of compounds of the present invention to inhibit the activity of various groups of kinases was tested. Kinases that were tested are described below. All kinase reactions were conducted in 96-well plates with a final reaction volume of 50 μl.
(§2) Recombinant human c-Src or Yes, or Fyn, or Lck (28 ng/well, Panvera/Invitrogen, Madison Wis.), ATP (3 μM), a tyrosine kinase substrate (PTK2, 250 μM, Promega Corp., Madison Wis.), and test agents (at concentrations ranging from about 1 nM/l to about 100 μM/l), in the presence of Src kinase reaction buffer (Upstate USA, Lake Placid N.Y.). After reacting for about 90 minutes at room temperature, residual ATP was determined using a luciferase-based assay (KinaseGlo, Promega Corp.) as a measure of kinase activity. Data from four wells were then averaged and used to determine IC50 values for the test compounds (Prism software package, GraphPad Software, San Diego Calif.).

Yes = target: T2, Yes (Homo sapiens, UniProt P07947); assay: Yes kinase inhibition (KinaseGlo); format: biochemical
T2 construct: purchased Panvera/Invitrogen
T2 sequence (P07947 whole entry): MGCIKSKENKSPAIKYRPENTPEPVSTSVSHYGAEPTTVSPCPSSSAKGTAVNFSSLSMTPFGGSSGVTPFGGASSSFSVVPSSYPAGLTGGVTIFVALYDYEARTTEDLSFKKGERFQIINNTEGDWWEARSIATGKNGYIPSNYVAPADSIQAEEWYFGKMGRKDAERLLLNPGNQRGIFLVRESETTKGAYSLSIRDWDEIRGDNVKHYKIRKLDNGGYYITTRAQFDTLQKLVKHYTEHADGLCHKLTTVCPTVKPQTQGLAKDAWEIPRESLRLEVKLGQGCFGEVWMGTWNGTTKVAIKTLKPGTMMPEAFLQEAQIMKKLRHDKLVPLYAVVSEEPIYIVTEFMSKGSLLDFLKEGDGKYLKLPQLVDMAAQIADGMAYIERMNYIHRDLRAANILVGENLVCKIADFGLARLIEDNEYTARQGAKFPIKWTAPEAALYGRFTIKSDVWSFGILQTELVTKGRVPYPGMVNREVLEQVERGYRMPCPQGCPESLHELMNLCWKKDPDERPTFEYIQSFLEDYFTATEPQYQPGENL
Method: as §1, §2

Abl = Abl (Homo sapiens, UniProt P00519); assay: Abl kinase inhibition; format: biochemical
Sequence of Abl (P00519 whole entry, species assumed): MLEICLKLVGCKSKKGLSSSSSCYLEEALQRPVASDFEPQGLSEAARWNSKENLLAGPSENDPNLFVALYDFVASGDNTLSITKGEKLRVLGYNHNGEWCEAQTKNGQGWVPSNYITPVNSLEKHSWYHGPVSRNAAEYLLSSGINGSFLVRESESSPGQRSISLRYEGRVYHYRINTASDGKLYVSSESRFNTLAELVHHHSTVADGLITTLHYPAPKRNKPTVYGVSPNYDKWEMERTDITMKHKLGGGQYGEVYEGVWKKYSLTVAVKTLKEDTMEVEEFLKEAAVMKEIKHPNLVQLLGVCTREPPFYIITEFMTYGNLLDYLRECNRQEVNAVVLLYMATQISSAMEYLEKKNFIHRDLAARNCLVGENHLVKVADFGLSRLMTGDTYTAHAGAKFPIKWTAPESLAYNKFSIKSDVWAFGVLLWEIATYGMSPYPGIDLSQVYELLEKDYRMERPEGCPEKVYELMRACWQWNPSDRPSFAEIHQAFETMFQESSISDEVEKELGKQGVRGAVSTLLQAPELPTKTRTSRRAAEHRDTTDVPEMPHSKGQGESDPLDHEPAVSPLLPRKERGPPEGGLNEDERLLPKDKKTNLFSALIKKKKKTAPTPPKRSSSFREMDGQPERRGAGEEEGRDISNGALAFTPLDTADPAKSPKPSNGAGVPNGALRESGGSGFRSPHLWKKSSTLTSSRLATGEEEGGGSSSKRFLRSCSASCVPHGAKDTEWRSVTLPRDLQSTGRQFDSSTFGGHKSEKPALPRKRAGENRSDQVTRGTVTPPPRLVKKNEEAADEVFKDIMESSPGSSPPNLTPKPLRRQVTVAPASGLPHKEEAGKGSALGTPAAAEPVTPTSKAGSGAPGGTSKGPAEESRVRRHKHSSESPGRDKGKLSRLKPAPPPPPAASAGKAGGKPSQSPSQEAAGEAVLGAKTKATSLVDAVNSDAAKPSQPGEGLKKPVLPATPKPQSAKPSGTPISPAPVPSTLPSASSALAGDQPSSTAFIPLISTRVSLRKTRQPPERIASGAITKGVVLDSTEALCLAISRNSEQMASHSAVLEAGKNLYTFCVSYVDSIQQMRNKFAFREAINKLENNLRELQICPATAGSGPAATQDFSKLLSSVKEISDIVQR
Method: as §1
Src Family of Kinases, abl, and Ret
as §2

EGFR = target: T3, EGFR (Homo sapiens, UniProt P00533); assay: EGFR kinase inhibition (residual ATP); format: biochemical; settings: 2.5 uM ATP, 60 min 37° C.
T3 construct: purchased Panvera/Invitrogen
T3 sequence (P00533 25-1210, species assumed): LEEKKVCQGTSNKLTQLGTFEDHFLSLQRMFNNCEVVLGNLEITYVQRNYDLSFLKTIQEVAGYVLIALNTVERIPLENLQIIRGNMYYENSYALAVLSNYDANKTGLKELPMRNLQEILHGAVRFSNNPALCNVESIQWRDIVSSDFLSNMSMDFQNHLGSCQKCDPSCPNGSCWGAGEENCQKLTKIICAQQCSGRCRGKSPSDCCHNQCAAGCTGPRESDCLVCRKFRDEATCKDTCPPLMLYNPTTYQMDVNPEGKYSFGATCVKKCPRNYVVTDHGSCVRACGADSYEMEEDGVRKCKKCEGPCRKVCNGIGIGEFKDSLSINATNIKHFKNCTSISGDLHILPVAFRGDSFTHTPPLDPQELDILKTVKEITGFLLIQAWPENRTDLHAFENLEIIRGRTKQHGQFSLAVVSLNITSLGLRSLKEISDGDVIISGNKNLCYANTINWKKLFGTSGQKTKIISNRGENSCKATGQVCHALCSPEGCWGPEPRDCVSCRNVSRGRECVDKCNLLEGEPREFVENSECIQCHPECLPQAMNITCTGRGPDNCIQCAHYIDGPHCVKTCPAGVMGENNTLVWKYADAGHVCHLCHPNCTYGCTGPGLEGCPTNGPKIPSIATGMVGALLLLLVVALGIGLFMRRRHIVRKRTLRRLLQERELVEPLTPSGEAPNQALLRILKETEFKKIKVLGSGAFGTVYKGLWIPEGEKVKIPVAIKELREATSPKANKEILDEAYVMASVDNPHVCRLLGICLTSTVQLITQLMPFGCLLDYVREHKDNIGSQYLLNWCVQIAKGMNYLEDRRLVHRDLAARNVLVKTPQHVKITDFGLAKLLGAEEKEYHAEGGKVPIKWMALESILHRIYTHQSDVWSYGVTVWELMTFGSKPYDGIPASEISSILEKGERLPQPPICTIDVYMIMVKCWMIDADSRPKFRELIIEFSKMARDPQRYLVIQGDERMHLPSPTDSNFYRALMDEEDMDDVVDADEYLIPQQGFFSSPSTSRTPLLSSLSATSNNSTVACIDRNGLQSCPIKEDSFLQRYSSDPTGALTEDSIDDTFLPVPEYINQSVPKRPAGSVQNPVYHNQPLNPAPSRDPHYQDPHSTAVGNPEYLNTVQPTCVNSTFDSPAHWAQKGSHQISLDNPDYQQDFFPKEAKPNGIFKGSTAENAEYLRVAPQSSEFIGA
Method: as §1
EGFR and VEGFR2 kinase assays were similarly performed. EGFR (76 ng/well, Panvera/Invitrogen) was combined with 12.5 mg/ml poly(glu4tyr) (Sigma) and 2.5 uM ATP. VEGFR2 (14.1 U/well, Cell Signaling/ProQinase) was used with 0.3 mg/ml poly(glu4tyr) and 1.5 uM ATP. Both were incubated for 60 minutes at 37° C., and the residual ATP was measured via luminescence, per the procedure described above.

[5] = test system: human retinal micro vascular endothelial cells (hRMVEC); assay: Cellular data using hRMVEC; format: cell-based; settings: Endothelial cell

SMILES | IC50 (Lck) | IC50 (Yes) | IC50 (Abl) | EC50 [5] | other results
O=C(Nc1ccc(Cl)c(C(=O)Nc2cnc(Nc3ccc(OCCN4CCCC4)cc3)nc2)c1)c1cccc(C(F)(F)F)c1 [Compound XL, 2-Chloro-N-{2-[4-(2-Pyrrolidin-1-yl-ethoxy)-Phenylamino]-Pyrimidin-5-yl}-5-(3-Trifluoromethyl-Benzoylamino)-Benzamide] | – | – | – | – | EI [1]: 0.110; Area (μm^2) of choroidal neovascularization [2]: 9,388 μm^2; reduction in retinal vascularization compared to vehicle ([3]; 0.1% solution, twice per day, 5 days, P=0.009): 29%; % Reduction vs. Vehicle (retinal vascularization) ([3]; 1% of compound XL (table), topical bid × 5): 29%; Area (mm^2), total retinal vascular area ([3]; 1% of compound XL (table), topical bid × 5, vehicle 8.269): 6.429 mm^2; Edema Index [4]: 2.3
O=C(Nc1ccc(Cl)c(C(=O)Nc2cnc(Nc3cccc(OCCN4CCCC4)c3)nc2)c1)c1cccc(C(F)(F)F)c1 [drawing 225] | 1.7 nM | 0.52 nM | 1.1 nM | – | –
O=C(Nc1cnc(Nc2cccc(OCCN3CCCC3)c2)nc1)c1cc(NC(=O)C(F)(F)F)ccc1Cl [drawing 227] | – | – | 154 nM | – | –
O=C(Nc1ccc(Cl)c(C(=O)Nc2cnc(Nc3ccc(S(=O)(=O)C4CCNCC4)cc3)nc2)c1)c1cccc(C(F)(F)F)c1 [drawing 228] | 4.5 nM | 0.9 nM | 0.2 nM | – | –
O=C(Nc1ccc(Cl)c(C(=O)Nc2cnc(Nc3ccc(OCCN4CCCC4)cc3)nc2)c1)c1cccc(C(F)(F)F)c1 [drawing 230] | 2.2 nM | 0.46 nM | 1.8 nM | – | IC50 (EGFR): 98 nM
O=C(Nc1ccc(Cl)c(C(=O)Nc2cnc(Nc3ccc(CCCN4CCCC4)cc3)nc2)c1)c1cccc(C(F)(F)F)c1 [drawing 231] | – | – | 3.8 nM | – | –
O=C(Nc1ccc(Cl)c(C(=O)Nc2cnc(Nc3ccc(CCCN4CCCC4)cc3)nc2)c1)c1cccc(C(F)(F)F)c1 [drawing 233] | – | – | – | – | IC50 (EGFR): 124 nM
Cc1ccc(NC(=O)c2cccc(C(F)(F)F)c2)cc1C(=O)Nc1cnc(Nc2ccc(OCCN3CCCC3)cc2)nc1 [drawing 240] | – | – | – | 199 nM | –
O=C(Nc1ccc(Cl)c(C(=O)Nc2cnc(Nc3ccc(CCCN4CCCC4)cc3)nc2)c1)c1cccc(C(F)(F)F)c1 [drawing 242] | – | – | – | 41 nM | –

The next lines start with results.

IC50 (Lck) | IC50 (Yes) | IC50 (Abl) | EC50 [5] | SMILES | other results
3.8 nM | 0.93 nM | – | – | Cc1ccc(NC(=O)c2cccc(C(F)(F)F)c2)cc1C(=O)Nc1cnc(Nc2cccc(OCCN3CCCC3)c2)nc1 [drawing 226] | –
5.1 nM | 1.3 nM | 5.5 nM | – | Cc1ccc(NC(=O)c2cccc(C(F)(F)F)c2)cc1C(=O)Nc1cnc(Nc2ccc(OCCN3CCCC3)cc2)nc1 [drawing 229] | –
– | – | 126 nM | – | Cc1ccc(NC(=O)C(F)(F)F)cc1C(=O)Nc1cnc(Nc2cccc(OCCN3CCCC3)c2)nc1 [drawing 232] | –
32.2 nM | 4.2 nM | – | – | O=C(Nc1ccc(Cl)c(C(=O)Nc2cnc(Nc3ccccc3)nc2)c1)c1cccc(C(F)(F)F)c1 [drawing 234] | –
309 nM | 22.2 nM | – | – | Cc1ccc(Nc2nccc3ccccc23)cc1C(=O)Nc1cnc(Nc2cccc(OCCN3CCCC3)c2)nc1 [drawing 236] | –
22.4 nM | 2.5 nM | – | – | O=C(Nc1cccc(C(F)(F)F)c1)Nc1ccc(Cl)c(C(=O)Nc2cnc(Nc3ccc(OCCN4CCCC4)cc3)nc2)c1 [drawing 237] | IC50 (EGFR): 558 nM
– | – | – | 69 nM | O=C(Nc1ccc(Cl)c(C(=O)Nc2cnc(Nc3cccc(OCCN4CCCC4)c3)nc2)c1)c1cccc(C(F)(F)F)c1 [drawing 238] | –
– | – | – | 1150 nM | O=C(Nc1ccc(Cl)c(C(=O)Nc2cnc(Nc3ccc(S(=O)(=O)C4CCNCC4)cc3)nc2)c1)c1cccc(C(F)(F)F)c1 [drawing 239] | –
– | – | – | 30 nM | O=C(Nc1ccc(Cl)c(C(=O)Nc2cnc(Nc3ccc(OCCN4CCCC4)cc3)nc2)c1)c1cccc(C(F)(F)F)c1 [drawing 241] | –
– | – | – | 68 nM | O=C(Nc1ccc(Cl)c(C(=O)Nc2cnc(Nc3cccnc3)nc2)c1)c1cccc(C(F)(F)F)c1 [drawing 243] | –
